Results taken from PubChem BioAssay (NCI).
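Exposure lasted 48 hours, with cells grown in 96-well plates and compounds tested at five concentrations. Here, GI50 denotes the concentration required for 50% inhibition of growth. Definition used: TGI = concentration required for complete inhibition of growth.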

How the values were obtained:
Test in all cases: NCI-60 cell line screen, 48 h
[1] = test system: UACC-62 melanoma
[2] = test system: SNB-19 CNS
[3] = test system: LOX IMVI melanoma
[4] = test system: EKVX NSCLC
[5] = test system: SF-539 CNS
[6] = test system: OVCAR-4 ovarian
[7] = test system: A498 renal
[8] = test system: HL-60(TB) leukemia
[9] = test system: RPMI-8226 leukemia
[10] = test system: CCRF-CEM leukemia

SMILES: CCC(O)(c1ccc(OC)cc1)C(c1ccc(OCc2ccccc2)cc1)c1ccc(OCc2ccccc2)cc1 (stereo not given)
- TGI [1]: > 100 µM
- TGI [2]: > 100 µM
- TGI [3]: > 100 µM
- TGI [4]: > 100 µM
- TGI [5]: > 100 µM
- TGI [6]: > 100 µM
- TGI [7]: > 100 µM
- TGI [8]: > 100 µM
- TGI [9]: > 100 µM
- TGI [10]: > 100 µM

SMILES: CC(C)(C)N1CC(OC(N)=O)C1
- GI50 [1]: > 100 µM
- TGI [1]: > 100 µM
- GI50 [2]: > 100 µM
- TGI [2]: > 100 µM
- GI50 [3]: > 100 µM
- TGI [3]: > 100 µM
- GI50 [4]: > 100 µM
- TGI [4]: > 100 µM
- GI50 [5]: > 100 µM
- TGI [5]: > 100 µM
- GI50 [6]: > 100 µM
- TGI [6]: > 100 µM
- GI50 [7]: > 100 µM
- TGI [7]: > 100 µM
- GI50 [8]: > 100 µM
- TGI [8]: > 100 µM
- GI50 [9]: > 100 µM
- TGI [9]: > 100 µM
- GI50 [10]: > 100 µM
- TGI [10]: > 100 µM

SMILES: C[C@]12CC(C#N)C(=O)C(O)=C1CC[C@@H]1C2CC[C@@]2(C)C1CC[C@@H]2O (stereo not given in full)
- TGI [1]: 83.8 µM
- TGI [2]: > 100 µM
- TGI [3]: > 100 µM
- TGI [4]: > 100 µM
- TGI [5]: > 100 µM
- TGI [6]: > 100 µM
- TGI [7]: 28.9 µM
- TGI [8]: > 100 µM
- TGI [9]: > 100 µM
- TGI [10]: > 100 µM

SMILES: NC1=NC(c2ccccc2)CC(c2cc(Cl)cc(Br)c2O)=N1 (stereo not given)
- TGI [1]: 24.6 µM
- TGI [2]: 33.3 µM
- TGI [3]: 27.7 µM
- TGI [4]: 28.2 µM
- TGI [5]: 25.4 µM
- TGI [6]: 41.9 µM
- TGI [7]: 35.7 µM
- TGI [8]: 13.2 µM
- TGI [9]: 33.6 µM
- TGI [10]: 35.6 µM

SMILES: O=C1/C(=C/c2ccccc2)CN(CCC(=O)N2C/C(=C\c3ccccc3)C(=O)/C(=C/c3ccccc3)C2)C/C1=C\c1ccccc1
- GI50 [1]: 7.19 µM
- TGI [1]: 33.9 µM
- GI50 [2]: 13.2 µM
- TGI [2]: > 93.4 µM
- GI50 [3]: 0.628 µM
- TGI [3]: 4.32 µM
- GI50 [4]: 18.2 µM
- TGI [4]: 67.5 µM
- GI50 [5]: 13.9 µM
- TGI [5]: 50.6 µM
- GI50 [6]: 18.8 µM
- TGI [6]: 83.1 µM
- GI50 [7]: 1.5 µM
- TGI [7]: 17.8 µM
- GI50 [8]: 13.7 µM
- TGI [8]: > 100 µM
- GI50 [9]: 0.046 µM
- TGI [9]: 0.5 µM
- GI50 [10]: 0.687 µM
- TGI [10]: > 100 µM

SMILES: O=C(O[C@H]1CN[C@H](C#Cc2cc3ncnc(Nc4ccc(OCc5cccc(F)c5)c(Cl)c4)c3s2)C1)N1CCOCC1
- GI50 [1]: 13.4 µM
- TGI [1]: > 25 µM
- GI50 [2]: > 25 µM
- TGI [2]: > 25 µM
- GI50 [3]: 7.72 µM
- TGI [3]: > 25 µM
- GI50 [4]: 0.6 µM
- TGI [4]: 24.2 µM
- GI50 [5]: 5.09 µM
- TGI [5]: 12 µM
- GI50 [6]: 10.3 µM
- TGI [6]: > 25 µM
- GI50 [7]: 1.76 µM
- TGI [7]: 8.21 µM
- GI50 [8]: 6.11 µM
- TGI [8]: 15.1 µM
- GI50 [9]: 4.48 µM
- TGI [9]: 17.3 µM
- GI50 [10]: 2.2 µM
- TGI [10]: > 22 µM

SMILES: COc1ccccc1N1CCN(C(=O)c2ccc(NS(=O)(=O)c3cccc4cccnc34)cc2)CC1
- GI50 [1]: > 100 µM
- TGI [1]: > 100 µM
- GI50 [2]: 29.5 µM
- TGI [2]: > 85.5 µM
- GI50 [3]: > 100 µM
- TGI [3]: > 100 µM
- GI50 [4]: > 100 µM
- TGI [4]: > 100 µM
- GI50 [5]: > 54.4 µM
- TGI [5]: > 100 µM
- GI50 [6]: > 100 µM
- TGI [6]: > 100 µM
- GI50 [7]: > 47.6 µM
- TGI [7]: > 100 µM
- GI50 [8]: > 100 µM
- TGI [8]: > 100 µM
- GI50 [9]: > 100 µM
- TGI [9]: > 100 µM
- GI50 [10]: > 100 µM
- TGI [10]: > 100 µM

SMILES: CC(C)c1cccc(C(C)C)c1N=C(N)C#N
- TGI [1]: 99.1 µM
- TGI [2]: > 100 µM
- TGI [3]: > 56.2 µM
- TGI [4]: > 100 µM
- TGI [5]: 50 µM
- TGI [6]: > 100 µM
- TGI [7]: > 100 µM
- TGI [8]: > 65.3 µM
- TGI [9]: > 87.3 µM
- TGI [10]: > 100 µM

SMILES: COc1ccc(-c2nc(N)c3ncn(C4OC(CO)C(O)C4O)c3n2)cc1 (stereo not given)
- TGI [1]: > 100 µM
- TGI [2]: > 100 µM
- TGI [3]: > 100 µM
- TGI [4]: > 100 µM
- TGI [5]: > 100 µM
- TGI [6]: > 100 µM
- TGI [7]: > 100 µM
- TGI [8]: > 100 µM
- TGI [9]: > 100 µM
- TGI [10]: > 100 µM

SMILES: COC1OC(CBr)C(OC(c2ccccc2)(c2ccccc2)c2ccccc2)C(OC(c2ccccc2)(c2ccccc2)c2ccccc2)C1OC(c1ccccc1)(c1ccccc1)c1ccccc1 (stereo not given)
- TGI [1]: > 100 µM
- TGI [2]: > 100 µM
- TGI [3]: > 100 µM
- TGI [4]: 70.2 µM
- TGI [5]: 68.7 µM
- TGI [6]: 60.8 µM
- TGI [7]: > 100 µM
- TGI [8]: > 100 µM
- TGI [9]: > 100 µM
- TGI [10]: > 100 µM

SMILES: CC(=O)NC1C(OCc2ccccc2)OC(COC(=O)CCCCCNc2ccc([N+](=O)[O-])c3[nH]c4ccc(O)cc4c(=O)c23)C(O)C1OC(C)C(=O)N[C@@H](C)C(=O)N[C@H](CCC(=O)OCc1ccccc1)C(N)=O (stereo not given in full)
- TGI [1]: 4.27 µM
- TGI [2]: 19.6 µM
- TGI [3]: 10.7 µM
- TGI [4]: 17.3 µM
- TGI [5]: 15.4 µM
- TGI [6]: 15.9 µM
- TGI [7]: 7.29 µM
- TGI [8]: > 52.2 µM
- TGI [9]: 3.57 µM
- TGI [10]: > 27.2 µM

SMILES: N#C/C(=C/C=C/c1ccccc1)S(=O)c1ccccc1 (stereo not given)
- GI50 [1]: 0.435 µM
- TGI [1]: 1.89 µM
- GI50 [2]: 0.638 µM
- TGI [2]: 2.58 µM
- GI50 [3]: 0.163 µM
- TGI [3]: 0.337 µM
- GI50 [4]: 0.899 µM
- TGI [4]: 2.46 µM
- GI50 [5]: 0.267 µM
- TGI [5]: 1.07 µM
- GI50 [6]: 0.329 µM
- TGI [6]: 2.27 µM
- GI50 [7]: 1.61 µM
- TGI [7]: 3.13 µM
- GI50 [8]: 0.288 µM
- TGI [8]: 2.25 µM
- GI50 [9]: 0.351 µM
- TGI [9]: 1.32 µM
- GI50 [10]: 0.341 µM
- TGI [10]: 1.59 µM

SMILES: CCC1CCCCN1C(=S)N/N=C(\C)c1ccccn1 (stereo not given)
- GI50 [1]: 0.123 µM
- TGI [1]: 1.92 µM
- GI50 [2]: 0.154 µM
- TGI [2]: 4.79 µM
- GI50 [3]: < 0.0246 µM
- TGI [3]: 3.86 µM
- GI50 [4]: 0.0728 µM
- TGI [4]: 4.8 µM
- GI50 [5]: 0.171 µM
- TGI [5]: 2.45 µM
- GI50 [6]: 0.0364 µM
- TGI [6]: 3.57 µM
- GI50 [7]: 0.136 µM
- TGI [7]: 1.93 µM
- GI50 [8]: 0.0429 µM
- TGI [8]: 3.91 µM
- GI50 [9]: 0.0423 µM
- TGI [9]: 1.89 µM
- GI50 [10]: 0.0414 µM
- TGI [10]: > 100 µM

SMILES: CNC(=O)c1cncc(/C=C/c2c(C)cccc2C)c1
- GI50 [1]: > 22.5 µM
- TGI [1]: > 25 µM
- GI50 [2]: > 25 µM
- TGI [2]: > 25 µM
- GI50 [3]: 16.2 µM
- TGI [3]: > 25 µM
- GI50 [4]: > 25 µM
- TGI [4]: > 25 µM
- GI50 [5]: 14.5 µM
- TGI [5]: > 25 µM
- GI50 [6]: > 25 µM
- TGI [6]: > 25 µM
- GI50 [7]: 8.95 µM
- TGI [7]: > 25 µM
- GI50 [8]: > 25 µM
- TGI [8]: > 25 µM
- GI50 [9]: > 25 µM
- TGI [9]: > 25 µM
- GI50 [10]: > 25 µM
- TGI [10]: > 25 µM

SMILES: O=C1c2cccc3cc([N+](=O)[O-])cc(c23)C(=O)N1CCN1CCCC1
- GI50 [1]: 0.322 µM
- TGI [1]: 1.71 µM
- GI50 [2]: 0.35 µM
- TGI [2]: 2.42 µM
- GI50 [3]: 0.297 µM
- TGI [3]: 3.27 µM
- GI50 [4]: 1.47 µM
- TGI [4]: 5.7 µM
- GI50 [5]: 0.487 µM
- TGI [5]: 2.04 µM
- GI50 [6]: 1.48 µM
- TGI [6]: 11.7 µM
- GI50 [7]: 0.319 µM
- TGI [7]: 1.65 µM
- GI50 [8]: 0.404 µM
- TGI [8]: > 100 µM
- GI50 [9]: 0.203 µM
- TGI [9]: 1.27 µM
- GI50 [10]: 0.343 µM
- TGI [10]: 7.02 µM
